The results in this text go back to patent US7482008B1, “Human T cell reactive feline protein (TRFP) isolated from house dust and uses therefor” (Merck Patent GmbH, priority 1989, dated 2009).

Assay [1] deals with Balb/c mice. The experiment in a line: Oral rChain 1, single vs multiple doses, protocol 3. It counts as in vivo, mouse. Here is the method:
Five groups of five age-matched Balb/c mice were fed on days −7, −5 and −2 with 250 μg rChain 1 (Groups 1 and 4), 750 μg rChain 1 (Group 2), or with PBS (Groups 3 and 5). On day 0, the mice in Groups 1-3 were challenged with a s.c. injection of 100 μg rChain 1 in CFA, while the mice in Groups 4 and 5 were not challenged. On day 12 the draining and mesenteric lymph nodes and spleens were removed for proliferation, IL-2, IL-4 and TGF-beta assays.
The draining lymph nodes (i.e., inguinal, paraaortic and popliteal), the mesenteric lymph nodes, and the spleen were surgically removed from the animals 10-12 days after antigen challenge. Cells from these tissues were suspended by being forced through a stainless steel mesh with a glass pestle. The cells were washed twice in RPMI 1640 medium with a 1% fetal calf serum (FCS) before culture. All cells were cultured at 37° C. in 5% CO2 in RPMI 1640 with 10% FCS (no. F4884, Sigma), 100 units of penicillin G per ml, 10 μg of streptomycin per ml, 10 mM glutamine, and 0.05 mM 2-mercaptoethanol. […]. Cells were cultured in triplicate, 0.2 ml per well at 4×10^6 cells per ml, in 96-well plates. Supernatants were removed from the wells after 24 hours to test for the production of IL-2 or IL-3 and were frozen to kill any transferred cells or removed after 48 hours for testing IL-4 production. Separate triplicate wells were incubated for 96 hours for the proliferation assay. The supernatants were kept at […] for several days to kill transferred cells.
Lymph node of spleen cells were plated in a flat bottom 96-well plate (4×10^5/well) in 100 μl medium. Peptide or recombinant protein or control solution (100 μl) is added to each well and the cells allowed to incubate for 1 day at 37° C. On day 2, the cultures were pulsed with [^3H] thymidine (1 μCi per well in 50 μl of medium; 1 Ci=37 GBq) for 4 to 6 hours, and on day 3, the plates were harvested with a 96-well harvester (Tomtec, Orange, Conn.) and counted on a Betaplate scintillation counter (Pharmacia, Upsaala Sweden).
To measure IL-2, supernatants were tested after thawing for the ability to support the growth of an IL-2-dependent line such as CTLL-2 (University of California, Berkeley). The cell line was maintained by passage in 10% supernatant of Con A-stimulated (5 μg/ml) rat spleen cells. This cell line is dependent almost exclusively on IL-2 for growth and survival, proliferating only weakly to high doses of recombinant IL-4. […] After a 24 hour incubation, the cells were pulsed with [^3H] thymidine (1 μCi per well in 50 μl of medium; 1 Ci=37 GBq) for 4 to 6 hours and the plates were harvested with a 96-well harvester (Tomtec, Orange, Conn.) and counted on a Betaplate scintillation counter (Pharmacia, Upsaala Sweden). […]

Assay [2] has as its system B6CBAF1 mice. The experiment in a line: Murine T cell response after immunization with peptide YZX, IL-2 production (CTLL-2). The settings on record: mice immunized with 100 μg peptide YZX in CFA; label = antigen in culture. It counts as in vivo, mouse. As to the method:
10 B6CBAF1 mice were immunized subcutaneously at the base of the tail and in the thigh region with 100 μg of peptide YZX in complete Freund's adjuvant. After 10 days, the inguinal, paraaortic, and popliteal nodes of the immunized mice were removed and pooled. The lymph node cells were suspended in cold RPMI 1640 with 1% fetal bovine serum (FBS) by passage through stainless steel mesh. The cells were washed 2 times with cold RPMI-1640 containing 1% FBS and maintained at 4° C.
The lymph node cells were plated at 4×10^6 cells/ml in RPMI 1640 with 10% FBS, 250 μg/ml penicillin G, 100 μg/ml streptomycin, and 5×10^−5 M 2-mercaptoethanol. […] After 24 hours, 50 μl of supernatant was removed from each culture and frozen overnight to eliminate live cell carryover. The supernatant was warmed to […] and washed. CTLL-2 indicator cells (ATCC # T1B 214) were added (5×10^3 cells/well). This indicator cell line requires IL-2 for continued growth. After 24 hours, H^3-thymidine (1 μCi/well) was added and the cells were further incubated for 4 hours. The plates were frozen and thawed, harvested on a Tomtec 96 well harvester (Tomtec, Orange, Conn.), and counted on a Betaplate beta counter (Pharmacia, Gaithersburg, Md.).

Assay [3] concerns T cells from cat allergic patients. Nature of the assay: T cell proliferation of TRFP-primed T cells from cat allergic patients (tritiated thymidine), Example 5 Part A. It counts as cell-based, human. As to the method: Peripheral blood mononuclear cells (PBMC) were purified from 60 ml of heparinized blood from cat allergic patients. PBMC were subsequently treated as described below, although in individual cases, the length of time of cultivation with IL-2 and/or IL-4 and the specific peptides used for stimulation varied.
10 ml of PBMC from patient 131 at 10^6 /ml were cultured at 37° C. for 7 days in the presence of 5 μg purified TRFP/ml RPMI-1640 supplemented with 5% pooled human AB serum. Viable cells were purified by Ficoll-Hypaque centrifugation and cultured for three weeks at 5 units recombinant human IL-2/ml and 5 units recombinant human IL-4/ml. The resting T cells were then restimulated (secondary) with 5 μg TRFP at 2×10^5/ml in the presence of irradiated (3500 Rads) autologous PBMC at a concentration of 5×10^5/ml for three days, purified by Ficoll-Hypaque centrifugation and grown in 5 units IL-2 and 5 units IL-4/ml for two weeks. For assay, 2×10^4 resting secondary T cells were restimulated (tertiary) in the presence of 5×10^4 irradiated (3500 Rads) autologous PBMC or 2×10^4 transformed B cells (20,000 Rads) with various concentrations of allergens or their fragments in a volume of 200 microliters in a 96-well round bottom assay plates for 3 days. Each well then received 1 μCurie tritiated (methyl) thymidine for 16 hours. The counts incorporated were collected onto glass fiber filters and processed for liquid scintillation counting.
Antigens used: T cell reactive feline protein (TRFP), Hollister-Stier cat epithelium skin test reagent (CST), IPC ragweed pollen extract (pollen), and synthetic peptides derived from TRFP protein sequence (See FIGS. 6 and 7). Positive T cell proliferation is for these experiments was considered to be greater than 2.5 times the media control (T cells and antigen presenting cells alone).
Alternatively, PBMC were treated as follows: The primary stimulated cells were cultured in IL-2/IL-4 for two weeks. The resting T cells derived from this culture were tested in a secondary assay with some, but not all, of the above allergens. […] This type of epitope analysis has allowed the definition of T cell epitopes present in TRFP.

Consider “recombinant chain 1: recombinant TRFP chain 1 expressed in E. coli”, for which the “production of IL-2 by mesenteric lymph node cells” value in assay [1] (cultured with rChain 1, Peptide X, and Peptide Y) was “detectable tolerizing effect”. Besides, in assay [1] (mouse, in vivo), the “spleen cell response to peptide X” value is recorded as “not changed”; the “spleen cell response to rChain 1 and peptide Y” value is “moderately decreased”. Further, the “draining node response, single oral 750 μg vs several doses of 250 μg” value in assay [1] (mouse, in vivo, po) is recorded as “more effective”.
On to “peptide Y: amino acid residues 29-55 from chain 1 of TRFP (SEQ. ID. NO: 18) (KALPVVLENARILKNCVDAKMTEEDKE)”, for which the “T cell response of pooled lymph node cells (IL-2 production)” value in assay [2] is “significant response”.
In assay [3] (Table 2, chain #1 TRFP peptides, average SI of responding patients multiplied by percent of patients with positive response (SI >2.5)), “NARILKNCVDAKMTEEDKE [Fel 4, TRFP chain 1 amino acids 37-55]” gave a PI of 601. The SI in assay [3] (Table 2, chain #1 TRFP peptides, average cpm with antigen divided by cpm of T cells and APC alone, responding patients) was 7.7.
Consider “peptide X: amino acid residues 7-30 from chain 1 of TRFP (SEQ. ID. NO: 17); Table 2 lists Fel 8-3 as 7-33 (KRDVDLFLTGTPDEYVEQVAQYKALPV)”, for which, in assay [2], the “T cell response of pooled lymph node cells (IL-2 production)” value was “significant response”. The “T cell stimulatory activity” value in assay [3] (summary in words of Tables 2 and 3) is on record as “powerful activity”.
